# From ChEMBL document CHEMBL3585330, “Anticancer activity of koningic acid and semisynthetic derivatives” (Bioorg Med Chem, 2015)
# The source made the active and inactive calls. No cut-off for these calls is given here.
# Legend:
# PANC-1 = test: Induction of ROS generation in human PANC1 cells incubated for 1 hr by DCFH-DA dye based assay; assay type: functional, cell-based
# A-375 [1] = test: Antiproliferative activity against human A375 cells assessed as inhibition of cell proliferation incubated for 72 hrs by conventional ATP quantification method; assay type: functional, cell-based; settings: A-375, 72 h
# HCT-116 [2] = test: (§1) Antiproliferative activity against human HCT116 cells assessed as inhibition of cell proliferation incubated for 72 hrs by conventional ATP quantification method; assay type: functional, cell-based; settings: HCT-116, 72 h
# A549 [3] = test: (§2) Antiproliferative activity against human A549 cells assessed as inhibition of cell proliferation incubated for 72 hrs by conventional ATP quantification method; assay type: functional, cell-based; settings: A549, 72 h
# [4] = Antiproliferative activity against human NAMALWA cells assessed as inhibition of cell proliferation incubated for 72 hrs by conventional ATP quantification method; assay type: functional, cell-based; settings: NAMALVA
# [5] = Antiproliferative activity against human WM266.4 cells assessed as inhibition of cell proliferation incubated for 72 hrs by conventional ATP quantification method; assay type: functional, cell-based; settings: WM 266-4, 72 h
# A549 [6] = test: as §2; assay type: functional, cell-based; settings: A549, 72 h; remark: listed apart in the source
# [7] = Toxicity in Swiss mouse xenografted with human A549 cells dosed intraperitoneally every day for 5 consecutive days during 2 weeks (q1d5 x 2 schedule); assay type: organism-based; settings: in vivo, ip
# HCT-116 [8] = test: as §1; assay type: functional, cell-based; settings: HCT-116, 72 h; remark: listed apart in the source
# Mus musculus [9] = test: Toxicity in Swiss mouse xenografted with human A549 cells assessed as induction of renal toxicity at 2.5 and 5 mg/kg, ip dosed every day for 5 consecutive days during 2 weeks (q1d5 x 2 schedule); assay type: organism-based; settings: in vivo, 336 h
# A-375 [10] = test: Antiproliferative activity against human A375 cells assessed as inhibition of cell proliferation incubated for 24 hrs by conventional ATP quantification method relative to untreated control; assay type: functional
# HL-60 = test: Antiproliferative activity against human HL60 cells assessed as inhibition of cell proliferation incubated for 72 hrs by conventional ATP quantification method; assay type: functional, cell-based; settings: HL-60, 72 h
# MDA-MB-231 [11] = test: Cytotoxicity against human MDA-MB-231 cells incubated for 72 hrs under hypoxic conditions by MTS assay; assay type: functional, cell-based
# SK-OV-3 = test: Antiproliferative activity against human SKOV3 cells assessed as inhibition of cell proliferation incubated for 72 hrs by conventional ATP quantification method; assay type: functional, cell-based; settings: SK-OV-3, 72 h
# A549 [12] = test: Antitumor activity against human A549 cells xenografted in Swiss mouse assessed as reduction of subcutaneous tumor growth at 1 mg/kg, ip dosed every day for 5 consecutive days during 2 weeks (q1d5 x 2 schedule); assay type: functional, organism-based
# [13] = Antiproliferative activity against human KG1 cells assessed as inhibition of cell proliferation incubated for 72 hrs by conventional ATP quantification method; assay type: functional, cell-based; settings: KG-1, 72 h
# TK-10 = test: Antiproliferative activity against human TK10 cells assessed as inhibition of cell proliferation incubated for 72 hrs by conventional ATP quantification method; assay type: functional, cell-based; settings: TK-10, 72 h
# A549 [14] = test: Antitumor activity against human A549 cells xenografted in Swiss mouse aggressive tumor model assessed as effect on rate of tumor growth at 1 mg/kg, ip dosed every day for 5 consecutive days during 2 weeks (q1d5 x 2 schedule); assay type: functional, organism-based
# [15] = Antiproliferative activity against human BxPC3 cells assessed as inhibition of cell proliferation incubated for 72 hrs by conventional ATP quantification method; assay type: functional, cell-based; settings: BXPC-3, 72 h
# [16] = Tmax in mouse at 2.5 mg/kg, po by tandem HPLC-mass spectrometry; assay type: ADME, organism-based; settings: in vivo
# [17] = Cmax in mouse at 2.5 mg/kg, po by tandem HPLC-mass spectrometry; assay type: ADME, organism-based; design: dose 2.5 mg/kg, route oral; settings: in vivo
# NCI-H460 = test: Antiproliferative activity against human NCI-H460 cells assessed as inhibition of cell proliferation incubated for 72 hrs by conventional ATP quantification method; assay type: functional, cell-based; settings: NCI-H460, 72 h
# [18] = Initial plasma concentration in mouse at 0.5 mg/kg, iv by tandem HPLC-mass spectrometry; assay type: ADME, organism-based
# OVCAR-3 = test: Antiproliferative activity against human OVCAR3 cells assessed as inhibition of cell proliferation incubated for 72 hrs by conventional ATP quantification method; assay type: functional, cell-based; settings: OVCAR-3, 72 h
# A-375 [19] = test: Inhibition of cell invasion of human A375 cells at 10 uM by Boyden chamber assay; assay type: functional, cell-based
# [20] = Half life in mouse at 1.5 mg/kg, ip by tandem HPLC-mass spectrometry; assay type: ADME, organism-based; settings: in vivo
# A-375 [21] = test: Toxicity against human A375 cells assessed as membrane integrity by measuring LDH release incubated for 24 hrs; assay type: cell-based; settings: a-375, 24 h
# MDA-MB-231 [22] = test: Antiproliferative activity against human MDA-MB-231 cells assessed as inhibition of cell proliferation incubated for 72 hrs by conventional ATP quantification method; assay type: functional, cell-based; settings: MDA-MB-231, 72 h
# [23] = Antiproliferative activity against human COLO205 cells assessed as inhibition of cell proliferation incubated for 72 hrs by conventional ATP quantification method; assay type: functional, cell-based; settings: COLO 205, 72 h
# Mus musculus [24] = test: Toxicity in Swiss mouse xenografted with human A549 cells assessed as induction of hepatic toxicity at 2.5 and 5 mg/kg, ip dosed every day for 5 consecutive days during 2 weeks (q1d5 x 2 schedule); assay type: organism-based; settings: in vivo, 336 h
# [25] = AUClast in mouse at 1.5 mg/kg, ip by tandem HPLC-mass spectrometry; assay type: ADME, organism-based; design: dose 1.5 mg/kg, route intraperitoneal, time 0 - last; settings: in vivo
# Mus musculus [26] = test: Toxicity in Swiss mouse xenografted with human A549 cells assessed as induction of icterus at 2.5 mg/kg, ip dosed every day for 4 consecutive days during 2 weeks (q1d4 x 2 schedule); assay type: organism-based; settings: in vivo, 336 h
# HT-29 [27] = test: Cytotoxicity against human HT-29 cells incubated for 72 hrs under normoxic conditions by MTS assay; assay type: functional, cell-based
# A549 [28] = test: Antitumor activity against human A549 cells xenografted in Swiss mouse assessed as effect on median tumor volume at 1 mg/kg, ip dosed every day for 5 consecutive days during 2 weeks (q1d5 x 2 schedule); assay type: functional, organism-based
# [29] = Oral bioavailability in mouse at 2.5 mg/kg by tandem HPLC-mass spectrometry; assay type: ADME, organism-based; settings: in vivo
# [30] = AUClast in mouse at 0.5 mg/kg, iv by tandem HPLC-mass spectrometry; assay type: ADME, organism-based; design: dose 0.5 mg/kg, route intravenous, time 0 - last; settings: in vivo
# HT-29 [31] = test: Cytotoxicity against human HT-29 cells incubated for 72 hrs under hypoxic conditions by MTS assay; assay type: functional, cell-based
# HOP-62 = test: Antiproliferative activity against human HOP62 cells assessed as inhibition of cell proliferation incubated for 72 hrs by conventional ATP quantification method; assay type: functional, cell-based; settings: HOP-62, 72 h
# MDA-MB-231 [32] = test: Cytotoxicity against human MDA-MB-231 cells incubated for 72 hrs under normoxic conditions by MTS assay; assay type: functional, cell-based
# [33] = Cmax in mouse at 1.5 mg/kg, ip by tandem HPLC-mass spectrometry; assay type: ADME, organism-based; design: dose 1.5 mg/kg, route intraperitoneal; settings: in vivo
# T47D = test: Antiproliferative activity against human T47D cells assessed as inhibition of cell proliferation incubated for 72 hrs by conventional ATP quantification method; assay type: functional, cell-based
# [34] = Half life in mouse at 2.5 mg/kg, po by tandem HPLC-mass spectrometry; assay type: ADME, organism-based; settings: in vivo
# A-375 [35] = test: Toxicity against human A375 cells assessed as reduction in cell viability at 10 uM; assay type: cell-based; settings: a-375, 10 µM
# [36] = Half life in mouse at 0.5 mg/kg, iv by tandem HPLC-mass spectrometry; assay type: ADME, organism-based; settings: in vivo
# A-375 [37] = test: Antiproliferative activity against human A375 cells assessed as inhibition of cell proliferation incubated for 24 hrs by conventional ATP quantification method; assay type: functional, cell-based; settings: A-375, 24 h
# Mus musculus [38] = test: Toxicity in Swiss mouse xenografted with human A549 cells assessed as induction of body weight loss at 2.5 mg/kg, ip dosed every day for 4 consecutive days during 2 weeks (q1d4 x 2 schedule); assay type: organism-based; settings: in vivo, 336 h
# KM12 = test: Antiproliferative activity against human KM12 cells assessed as inhibition of cell proliferation incubated for 72 hrs by conventional ATP quantification method; assay type: functional, cell-based; settings: KM12, 72 h
# DU-145 = test: Antiproliferative activity against human DU145 cells assessed as inhibition of cell proliferation incubated for 72 hrs by conventional ATP quantification method; assay type: functional, cell-based; settings: DU-145, 72 h
# [39] = AUClast in mouse at 2.5 mg/kg, po by tandem HPLC-mass spectrometry; assay type: ADME, organism-based; design: dose 2.5 mg/kg, route oral, time 0 - last; settings: in vivo
# [40] = Tmax in mouse at 1.5 mg/kg, ip by tandem HPLC-mass spectrometry; assay type: ADME, organism-based; settings: in vivo
molecule,measurement,setting,value
BLEOMYCIN,Activity,PANC-1,Active
COC(=O)C1=C[C@@H]2[C@@H](C(C)C)CC[C@@]3(CO3)[C@H]2C(=O)OC1,IC50,A-375 [1],4090 nM
same,IC50,HCT-116 [2],2190 nM
same,IC50,A549 [3],450 nM
same,IC50,[4],1740 nM
same,IC50,[5],4100 nM
CNC(=O)C1=C[C@@H]2[C@@H](C(C)C)CC[C@@](O)(CO)[C@H]2C(=O)OC1,IC50,A-375 [1],> 32000 nM
same,IC50,HCT-116 [2],> 32000 nM
same,IC50,A549 [3],> 32000 nM
same,IC50,[4],> 32000 nM
same,IC50,[5],> 32000 nM
CC(C)[C@H]1CC[C@@](O)(CI)[C@H]2C(=O)OCC(C(=O)O)=C[C@H]12,IC50,A-375 [1],> 10000 nM
same,IC50,HCT-116 [2],2140 nM
same,IC50,A549 [3],5430 nM
same,IC50,[4],3260 nM
same,IC50,[5],10100 nM
CC(C)[C@H]1CC[C@@]2(CO2)[C@H]2C(=O)OCC(C(=O)O)=C[C@H]12,IC50,A549 [6],990 nM
same,MTD at 336 h,[7],1 mg/kg
same,IC50,HCT-116 [8],930 nM
same,Activity,Mus musculus [9],Toxic
same,inhibition (INH),A-375 [10],90%
same,IC50,HL-60,760 nM
same,IC50,A-375 [1],1340 nM
same,IC50,HCT-116 [2],210 nM
same,Activity,MDA-MB-231 [11],Active
same,IC50,SK-OV-3,340 nM
same,Activity,A549 [12],inactive
same,IC50,[13],400 nM
same,IC50,TK-10,660 nM
same,IC50,A549 [3],458 nM
same,Activity,A549 [14],inactive
same,IC50,[15],760 nM
same,Tmax,[16],15 min
same,Cmax,[17],17 ng/mL
same,IC50,NCI-H460,490 nM
same,Activity,PANC-1,inactive
same,C0,[18],180 ng/mL
same,IC50,OVCAR-3,690 nM
same,inhibition,A-375 [19],inactive
same,half-life,[20],6 min
same,Activity,A-375 [21],8%
same,IC50,MDA-MB-231 [22],450 nM
same,IC50,[23],630 nM
same,Activity,Mus musculus [24],Toxic
same,AUC(0-t),[25],78.7 ng·h/mL
same,Activity,Mus musculus [26],Toxic
same,IC50,[4],302 nM
same,Activity,HT-29 [27],Active
same,Activity,A549 [28],inactive
same,bioavailability,[29],17%
same,AUC(0-t),[30],10.4 ng·h/mL
same,Activity,HT-29 [31],Active
same,IC50,HOP-62,510 nM
same,Activity,MDA-MB-231 [32],Active
same,Cmax,[33],249 ng/mL
same,IC50,T47D,210 nM
same,half-life,[34],30 min
same,Activity,A-375 [35],81%
same,half-life,[36],2.4 min
same,IC50,A-375 [37],1260 nM
same,Activity,Mus musculus [38],> 15%
same,IC50,KM12,410 nM
same,IC50,DU-145,890 nM
same,IC50,[5],509 nM
same,AUC(0-t),[39],8.6 ng·h/mL
same,Tmax,[40],15 min
CC(C)[C@H]1CC[C@@]2(CO2)[C@H]2C(=O)OCC(C(=O)OCc3ccc(-c4ccccc4)o3)=C[C@H]12,IC50,A-375 [1],1310 nM
same,IC50,HCT-116 [2],220 nM
same,IC50,A549 [3],350 nM
same,IC50,[4],370 nM
same,IC50,[5],960 nM
